US20260262643A1, “HERBICIDAL BENZOXAZINES” (FMC CORPORATION, priority 2022, published 2026)

Columns and labels:
barnyardgrass [1] = assay: Test C postemergence; format: in vivo, Echinochloa crusgalli; conditions: 10 days
Summary of the method: (§1)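 Visual injury ratings on a 0–100 scale (100 = complete control) were made against untreated controls 10 days after treatment in the greenhouse. Compounds, formulated with surfactant in non-phytotoxic solvent, were sprayed on soil preemergence or onto one- to two-leaf plants 2–10 cm tall postemergence.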

ragweed [2] = assay: Test C postemergence; format: in vivo, Ambrosia artemisiifolia; conditions: 10 days
Summary of the method: as §1

green foxtail [3] = assay: Test C postemergence; format: in vivo, Setaria viridis; conditions: 10 days
Summary of the method: as §1

galium = assay: Test C postemergence; format: in vivo, Galium aparine; conditions: 10 days
Summary of the method: as §1

kochia [4] = assay: Test C postemergence; format: in vivo, Bassia scoparia; conditions: 10 days
Summary of the method: as §1

ryegrass, Italian [5] = assay: Test C preemergence; format: in vivo, Lolium multiflorum; conditions: 0 to 100 scale (0 no effect, 100 complete control)
Summary of the method: as §1

kochia [6] = assay: Test C preemergence; format: in vivo, Bassia scoparia; conditions: 0 to 100 scale (0 no effect, 100 complete control)
Summary of the method: as §1

wheat [7] = assay: Test C postemergence; format: in vivo, Triticum aestivum; conditions: 10 days
Summary of the method: as §1

wheat [8] = assay: Test C preemergence; format: in vivo, Triticum aestivum; conditions: 0 to 100 scale (0 no effect, 100 complete control)
Summary of the method: as §1

oat, wild [9] = assay: Test C postemergence; format: in vivo, Avena fatua; conditions: 10 days
Summary of the method: as §1

pigweed, palmer [10] = assay: Test C postemergence; format: in vivo, Amaranthus palmeri; conditions: 10 days
Summary of the method: as §1

blackgrass [11] = assay: Test C preemergence; format: in vivo, Alopecurus myosuroides; conditions: 0 to 100 scale (0 no effect, 100 complete control)
Summary of the method: as §1

oat, wild [12] = assay: Test C preemergence; format: in vivo, Avena fatua; conditions: 0 to 100 scale (0 no effect, 100 complete control)
Summary of the method: as §1

ryegrass, Italian [13] = assay: Test C postemergence; format: in vivo, Lolium multiflorum; conditions: 10 days
Summary of the method: as §1

sedge, umbrella = assay: Test D flooded paddy test; format: in vivo, Cyperus difformis; conditions: 250 g ai/ha, applied to paddy water, visual rating after 13 to 14 days, scale 0 to 100 (0 no effect, 100 complete control)
Summary of the method: (§2)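 2-leaf plants; flood 3 cm above soil; compound dosed into paddy water; greenhouse 13–14 d; visual rating vs controls, 0–100 (100 = complete control); dash = not tested.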

rice = assay: Test D flooded paddy test; format: in vivo, Oryza sativa; conditions: 250 g ai/ha, applied to paddy water, visual rating after 13 to 14 days, scale 0 to 100 (0 no effect, 100 complete control)
Summary of the method: as §2

green foxtail [14] = assay: Test C preemergence; format: in vivo, Setaria viridis; conditions: 0 to 100 scale (0 no effect, 100 complete control)
Summary of the method: as §1

blackgrass [15] = assay: Test C postemergence; format: in vivo, Alopecurus myosuroides; conditions: 10 days
Summary of the method: as §1

horseweed = assay: Test C postemergence; format: in vivo, Erigeron canadensis; conditions: 10 days
Summary of the method: as §1

ducksalad = assay: Test D flooded paddy test; format: in vivo, Heteranthera limosa; conditions: 250 g ai/ha, applied to paddy water, visual rating after 13 to 14 days, scale 0 to 100 (0 no effect, 100 complete control)
Summary of the method: as §2

ragweed [16] = assay: Test C preemergence; format: in vivo, Ambrosia artemisiifolia; conditions: 0 to 100 scale (0 no effect, 100 complete control)
Summary of the method: as §1

pigweed, palmer [17] = assay: Test C preemergence; format: in vivo, Amaranthus palmeri; conditions: 0 to 100 scale (0 no effect, 100 complete control)
Summary of the method: as §1

soybean [18] = assay: Test C preemergence; format: in vivo, Glycine max; conditions: 0 to 100 scale (0 no effect, 100 complete control)
Summary of the method: as §1

barnyardgrass [19] = assay: Test D flooded paddy test; format: in vivo, Echinochloa crus-galli; conditions: 250 g ai/ha, applied to paddy water, visual rating after 13 to 14 days, scale 0 to 100 (0 no effect, 100 complete control)
Summary of the method: as §2

corn [20] = assay: Test C postemergence; format: in vivo, Zea mays; conditions: 10 days
Summary of the method: as §1

soybean [21] = assay: Test C postemergence; format: in vivo, Glycine max; conditions: 10 days
Summary of the method: as §1

barnyardgrass [22] = assay: Test C preemergence; format: in vivo, Echinochloa crusgalli; conditions: 0 to 100 scale (0 no effect, 100 complete control)
Summary of the method: as §1

corn [23] = assay: Test C preemergence; format: in vivo, Zea mays; conditions: 0 to 100 scale (0 no effect, 100 complete control)
Summary of the method: as §1

[24] = 125 g ai/ha, postemergence, 0 to 100 scale, 0 no effect, 100 complete control
[25] = Postemergence, 500 g ai/ha, visual 0 to 100 scale (0 no effect, 100 complete control)
[26] = Preemergence, 500 g ai/ha, visual rating after 10 days
[27] = Test C, preemergence, 125 g ai/ha

What does the source list for `Cc1c(F)cc(-n2cnc(C(C)C)n2)cc1C(=O)N1C[C@H](C)Oc2c(Cl)cccc21` [Compound 151]?
Plant response rating, Barnyardgrass (barnyardgrass [1]; [24]): 70; Plant response rating, Barnyardgrass (barnyardgrass [1]; [25]): 100; Plant response rating, Ragweed (ragweed [2]; [24]): 70; Plant response rating, Ragweed (ragweed [2]; [25]): 90; Plant response rating, Foxtail, Green (green foxtail [3]; [24]): 80; Plant response rating, Foxtail, Green (green foxtail [3]; [25]): 90; Plant response rating, Galium (galium; [24]): 100; Plant response rating, Galium (galium; [25]): 100; Plant response rating, Kochia (kochia [4]; [24]): 90; Plant response rating, Kochia (kochia [4]; [25]): 100; Plant response rating, Ryegrass, Italian (ryegrass, Italian [5]; [26]): 90; Ryegrass, Italian plant response rating (ryegrass, Italian [5]; [27]): 80; Plant response rating, Kochia (kochia [6]; [26]): 100; Kochia plant response rating (kochia [6]; [27]): 100; Plant response rating, Wheat (wheat [7]; [24]): 20; Plant response rating, Wheat (wheat [7]; [25]): 30; Plant response rating, Wheat (wheat [8]; [26]): 80; Wheat plant response rating (wheat [8]; [27]): 80; Plant response rating, Oat, Wild (oat, wild [9]; [24]): 20; Plant response rating, Oat, Wild (oat, wild [9]; [25]): 50; Plant response rating, Pigweed, Palmer (pigweed, palmer [10]; [24]): 90; Plant response rating, Pigweed, Palmer (pigweed, palmer [10]; [25]): 100; Plant response rating, Blackgrass (blackgrass [11]; [26]): 90; Blackgrass plant response rating (blackgrass [11]; [27]): 50; Plant response rating, Oat, Wild (oat, wild [12]; [26]): 90; Oat, Wild plant response rating (oat, wild [12]; [27]): 30; Plant response rating, Ryegrass, Italian (ryegrass, Italian [13]; [24]): 60; Plant response rating, Ryegrass, Italian (ryegrass, Italian [13]; [25]): 80; Plant response rating, Sedge, Umbrella (Flood) (sedge, umbrella): 75; Plant response rating, Rice (Flood) (rice): 45; Plant response rating, Foxtail, Green (green foxtail [14]; [26]): 100; Foxtail, Green plant response rating (green foxtail [14]; [27]): 100; Plant response rating, Blackgrass (blackgrass [15]; [24]): 80; Plant response rating, Blackgrass (blackgrass [15]; [25]): 80; Plant response rating, Horseweed (horseweed; [24]): 40; Plant response rating, Horseweed (horseweed; [25]): 80; Plant response rating, Ducksalad (Flood) (ducksalad): 50; Plant response rating, Ragweed (ragweed [16]; [26]): 80; Ragweed plant response rating (ragweed [16]; [27]): 30; Plant response rating, Pigweed, Palmer (pigweed, palmer [17]; [26]): 100; Pigweed, Palmer plant response rating (pigweed, palmer [17]; [27]): 100; Plant response rating, Soybean (soybean [18]; [26]): 90; Soybean plant response rating (soybean [18]; [27]): 50; Plant response rating, Barnyardgrass (Flood) (barnyardgrass [19]): 40; Plant response rating, Corn (corn [20]; [24]): 60; Plant response rating, Corn (corn [20]; [25]): 90; Plant response rating, Soybean (soybean [21]; [24]): 100; Plant response rating, Soybean (soybean [21]; [25]): 100; Barnyardgrass plant response rating (barnyardgrass [22]; 125 g ai/ha, preemergence): 90; Plant response rating, Barnyardgrass (barnyardgrass [22]; [26]): 100; Plant response rating, Corn (corn [23]; [26]): 50; Corn plant response rating (corn [23]; [27]): 20
